Measurements published in patent publication US8377974B2 (Millennium Pharmaceuticals, Inc., priority 2004, dated 2013).
pIC50: −log10 of the molar value.

target: T1, human plasma protein factor Xa (Homo sapiens, UniProt P00742); assay: Factor Xa IC50 determination: cleavage of paranitroanilide substrate S-2765 in 96-well plates; assay type: biochemical; conditions: fXa 1 nM, S-2765 100 μM, Tris buffered saline pH 7.4, room temperature
T1 construct: measure proteolytic activity of the enzyme (factor Xa); purchased Haematologic Technologies (Essex Junction, Vt.); host or cells: human plasma
T1 sequence (P00742 235-488 limits assumed): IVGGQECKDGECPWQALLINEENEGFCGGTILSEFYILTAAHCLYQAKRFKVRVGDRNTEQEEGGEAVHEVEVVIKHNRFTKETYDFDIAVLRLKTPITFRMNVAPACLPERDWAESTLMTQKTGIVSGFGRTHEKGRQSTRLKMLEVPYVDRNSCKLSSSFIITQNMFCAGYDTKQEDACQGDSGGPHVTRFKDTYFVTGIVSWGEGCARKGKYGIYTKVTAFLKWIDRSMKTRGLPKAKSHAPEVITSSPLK
T1 sequence (P00742 41-179 partner limits assumed): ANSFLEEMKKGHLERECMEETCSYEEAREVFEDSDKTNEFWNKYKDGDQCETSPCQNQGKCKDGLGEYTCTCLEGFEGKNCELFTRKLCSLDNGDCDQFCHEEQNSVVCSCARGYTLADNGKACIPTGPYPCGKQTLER
Summary of the method: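 Initial rates of S-2765 (100 μM final) cleavage, read at 405 nm for 2 min, fitted with a four-parameter equation to give IC50. Enzyme: 1 nM human plasma fXa, 5 min room-temperature preincubation with inhibitor (0.01 nM–10 μM) in 20 mM Tris, 150 mM NaCl, 5 mM CaCl2, 0.1% BSA, 5% DMSO, pH 7.4; duplicates.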

CN(C)CCN(C)C(=N)c1ccc(-c2nc(CNC(=O)c3ccc(Cl)s3)co2)cc1 [Example 345, N-((2-(4-(N-(2-(Dimethylamino)ethyl)-N-methylcarbamimidoyl)phenyl)oxazol-4-yl)methyl)-5-chlorothiophene-2-carboxamide] and CCCN(C)C(=N)c1ccc(-c2nc(CNC(=O)c3ccc(Cl)s3)co2)cc1 [Example 344, N-((2-(4-(N-Methyl-N-propylcarbamimidoyl)phenyl)oxazol-4-yl)methyl)-5-chlorothiophene-2-carboxamide] fall in the same range of pIC50: 6.30 to 7.00 for the first, 6.30 to 7.00 for the second.

O=C(NCc1nc(-c2ccc(-n3ccccc3=O)cc2)no1)c1ccc(Cl)s1 [Example 311, 5-Chloro-N-((3-(4-(2-oxopyridin-1(2H)-yl)phenyl)-1,2,4-oxadiazol-5-yl)methyl)thiophene-2-carboxamide] and O=C(NCc1cn(-c2ccc(-n3ccccc3=O)nc2)nn1)c1ccc(Cl)s1 [Example 389, 5-Chloro-N-((1-(6-(2-oxopyridin-1(2H)-yl)pyridin-3-yl)-1H-1,2,3-triazol-4-yl)methyl)thiophene-2-carboxamide] cannot be ordered by pIC50: at least 7.00 for the first, at least 7.00 for the second.

CN(C)CCN(C)C(=N)c1ccc(C2=NOC(CNC(=O)c3ccc(Cl)s3)C2)cc1 (stereo not drawn) [Example 16, 5-Chloro-thiophene-2-carboxylic acid (3-{4-[N-(2-dimethylamino-ethyl)-N-methyl-carbamimidoyl]-phenyl}-4,5-dihydro-isoxazol-5-ylmethyl)-amide] and CN(C)CCCN(C)c1ccc(C2=NOC(CNC(=O)c3ccc(Cl)s3)C2)cc1 (stereo not drawn) [Example 239, 5-Chloro-thiophene-2-carboxylic acid (3-{4-[(3-dimethylamino-propyl)-methyl-amino]-phenyl}-4,5-dihydro-isoxazol-5-ylmethyl)-amide] cannot be ordered by pIC50: at least 7.00 for the first, at least 7.00 for the second.

Compared with CN(C)CCN(C)C(=N)c1ccc(-c2cc(CNC(=O)c3ccc(Cl)s3)on2)cc1 [Example 30, 5-Chloro-thiophene-2-carboxylic acid (3-{4-[N-(2-dimethylamino-ethyl)-N-methyl-carbamimidoyl]-phenyl}-isoxazol-5-ylmethyl)-amide], COC(=O)c1ccc(-c2cc(CNC(=O)c3ccc(Cl)s3)on2)cc1 [Example 157, 4-(5-{[(5-Chloro-thiophene-2-carbonyl)-amino]-methyl}-isoxazol-3-yl)-benzoic acid methyl ester] is lower in pIC50: at least 7.00 for the first, at most 6.30 for the second. The first is the more potent here.

O=C(NCc1cn(-c2ccc(-n3cccc(Cl)c3=O)cc2)nn1)c1ccc(Cl)s1 [Example 292, 5-Chloro-N-((1-(4-(3-chloro-2-oxopyridin-1(2H)-yl)phenyl)-1H-1,2,3-triazol-4-yl)methyl)thiophene-2-carboxamide] and O=C(NCc1cn(-c2ccc(N3CCOCC3=O)cc2)nn1)c1ccc(Cl)s1 [Example 301, 5-Chloro-N-((1-(4-(3-oxomorpholino)phenyl)-1H-1,2,3-triazol-4-yl)methyl)thiophene-2-carboxamide] cannot be ordered by pIC50: at least 7.00 for the first, at least 7.00 for the second.

N=C(c1ccc(-n2cnc(CNC(=O)c3ccc(Cl)s3)c2)cc1)N1CCC1 [Example 366, N-((1-(4-(Azetidin-1-yl(imino)methyl)phenyl)-1H-imidazol-4-yl)methyl)-5-chlorothiophene-2-carboxamide] and N=C(c1ccc(-c2coc(CNC(=O)c3ccc(Cl)s3)n2)cc1)N1CCCC1 [Example 359, 5-Chloro-N-((4-(4-(imino(pyrrolidin-1-yl)methyl)phenyl)oxazol-2-yl)methyl)thiophene-2-carboxamide] cannot be ordered by pIC50: at least 7.00 for the first, 6.30 to 7.00 for the second.

Compared with CSc1cc(C2=NCCN2C)ccc1-c1cc(CNC(=O)c2ccc(Cl)s2)on1 [Example 141, 5-Chloro-thiophene-2-carboxylic acid {3-[4-(1-methyl-4,5-dihydro-1H-imidazol-2-yl)-2-methylsulfanyl-phenyl]-isoxazol-5-ylmethyl}-amide], CSc1cc(C(=N)N2CCCCC2)ccc1-c1cc(CNC(=O)c2ccc(Cl)s2)on1 [Example 143, 5-Chloro-thiophene-2-carboxylic acid {3-[4-(imino-piperidin-1-yl-methyl)-2-methylsulfanyl-phenyl]-isoxazol-5-ylmethyl}-amide] is lower in pIC50: at least 7.00 for the first, at most 6.30 for the second. The first is the more potent here.

O=C(NCc1cc(-c2cccc(-c3ccccc3CN3CCCC3)c2)no1)c1ccc(Cl)s1 [Example 269, 5-Chloro-thiophene-2-carboxylic acid [3-(2′-pyrrolidin-1-ylmethyl-biphenyl-3-yl)-isoxazol-5-ylmethyl]-amide] and COCc1ccccc1-c1ccc(-c2cc(CNC(=O)c3ccc(Cl)s3)on2)cc1 [Example 189, 5-Chloro-thiophene-2-carboxylic acid [3-(2′-methoxymethyl-biphenyl-4-yl)-isoxazol-5-ylmethyl]-amide] cannot be ordered by pIC50: at least 7.00 for the first, 6.30 to 7.00 for the second.

First: O=Cc1ccccc1-c1ccc(-c2cc(CNC(=O)c3ccc(Cl)s3)on2)cc1 [Example 208, 5-Chloro-thiophene-2-carboxylic acid [3-(2′-formyl-biphenyl-4-yl)-isoxazol-5-ylmethyl]-amide]
Second: O=C(NCc1cc(-c2ccc(-c3ccccn3)cc2)no1)c1ccc(Cl)s1 [Example 220, 5-Chloro-thiophene-2-carboxylic acid [3-(4-pyridin-2-yl-phenyl)-isoxazol-5-ylmethyl]-amide]
The pIC50 of the first is higher: at least 7.00 for the first, at most 6.30 for the second.

O=C(NCc1cn(-c2ccc(N3CCNCC3)nc2)nn1)c1ccc(Cl)s1 [Example 390, 5-Chloro-N-((1-(6-(piperazin-1-yl)pyridin-3-yl)-1H-1,2,3-triazol-4-yl)methyl)thiophene-2-carboxamide] and CC(C)Oc1cc(C(=N)N2CCCCC2)ccc1-c1cc(CNC(=O)c2ccc(Cl)s2)on1 [Example 129, 5-Chloro-thiophene-2-carboxylic acid {3-[4-(imino-piperidin-1-yl-methyl)-2-isopropoxy-phenyl]-isoxazol-5-ylmethyl}-amide] cannot be ordered by pIC50: 6.30 to 7.00 for the first, at least 7.00 for the second.

CN1CCC(Nc2ccc(C3=NOC(CNC(=O)c4ccc(Cl)s4)C3)cc2)CC1 (stereo not drawn) [Example 237, 5-Chloro-thiophene-2-carboxylic acid {3-[4-(1-methyl-piperidin-4-ylamino)-phenyl]-4,5-dihydro-isoxazol-5-ylmethyl}-amide] and CC1CCCN1C(=O)c1ccc(C2=NOC(CNC(=O)c3ccc(Cl)s3)C2)cc1 (stereo not drawn) [Example 165, 5-Chloro-thiophene-2-carboxylic acid {3-[4-(2-methyl-pyrrolidine-1-carbonyl)-phenyl]-4,5-dihydro-isoxazol-5-ylmethyl}-amide] fall in the same range of pIC50: 6.30 to 7.00 for the first, 6.30 to 7.00 for the second.

First: O=C(NCC1CC(c2ccc(Nc3ccnc4c(C(F)(F)F)cccc34)cc2)=NO1)c1ccc(Cl)s1 (stereo not drawn) [Example 393, 5-Chloro-N-((3-(4-(8-(trifluoromethyl)quinolin-4-ylamino)phenyl)-4,5-dihydroisoxazol-5-yl)methyl)thiophene-2-carboxamide]
Second: O=C(NCC1CC(c2ccc(Nc3ccnc4ccc(C(F)(F)F)cc34)cc2)=NO1)c1ccc(Cl)s1 (stereo not drawn) [Example 395, 5-Chloro-N-((3-(4-(6-(trifluoromethyl)quinolin-4-ylamino)phenyl)-4,5-dihydroisoxazol-5-yl)methyl)thiophene-2-carboxamide]
The pIC50 of the first is lower: at most 6.30 for the first, at least 7.00 for the second. The second is the more potent here.

First: N=C(c1ccc(C2=NOC(CNC(=O)c3ccc(Cl)s3)C2)c(N2CCCCCC2)c1)N1CCCCC1 (stereo not drawn) [Example 93, 5-Chloro-thiophene-2-carboxylic acid {3-[2-azepan-1-yl-4-(imino-piperidin-1-yl-methyl)-phenyl]-4,5-dihydro-isoxazol-5-ylmethyl}-amide]
Second: N=C(N)N1CCC(C2=NOC(CNC(=O)c3ccc(Cl)s3)C2)CC1 (stereo not drawn) [Example 172, 5-Chloro-thiophene-2-carboxylic acid [3-(1-carbamimidoyl-piperidin-4-yl)-4,5-dihydro-isoxazol-5-ylmethyl]-amide]
The pIC50 of the first is higher: at least 7.00 for the first, at most 6.30 for the second.

CN(C)C(=N)c1ccc(-c2ccc(F)c(CNC(=O)c3ccc(Cl)s3)c2)cc1 [Example 374, N-((5-(4-(N,N-Dimethylcarbamimidoyl)phenyl)-2-fluorophenyl)methyl)-5-chlorothiophene-2-carboxamide] and CN(C)C(=N)c1ccc(-c2cc(CNC(=O)c3ccc(Cl)s3)no2)cc1 [Example 330, N-((5-(4-(N,N-Dimethylcarbamimidoyl)phenyl)isoxazol-3-yl)methyl)-5-chlorothiophene-2-carboxamide] cannot be ordered by pIC50: at least 7.00 for the first, at least 7.00 for the second.

CNC(=N)c1ccc(C2=NOC(C)(CNC(=O)c3ccc(Cl)s3)C2)cc1 (stereo not drawn) [Example 69, 5-Chloro-thiophene-2-carboxylic acid {5-methyl-3-[4-(N-methylcarbamimidoyl)-phenyl]-4,5-dihydro-isoxazol-5-ylmethyl}-amide] and CN(Cc1ccco1)C(=N)c1ccc(C2=NOC(CNC(=O)c3ccc(Cl)s3)C2)cc1 (stereo not drawn) [Example 15, 5-Chloro-thiophene-2-carboxylic acid {3-[4-(N-furan-2-ylmethyl-N-methyl-carbamimidoyl)-phenyl]-4,5-dihydro-isoxazol-5-ylmethyl}-amide] cannot be ordered by pIC50: at least 7.00 for the first, 6.30 to 7.00 for the second.

O=C(NCC1CC(c2ccc(Nc3cccnc3)cc2)=NO1)c1ccc(Cl)s1 (stereo not drawn) [Example 225, 5-Chloro-thiophene-2-carboxylic acid {3-[4-(pyridin-3-ylamino)-phenyl]-4,5-dihydro-isoxazol-5-ylmethyl}-amide] and O=C(NCC1CC(c2ccc(-c3ccccc3C(F)(F)F)cc2)=NO1)c1ccc(Cl)s1 (stereo not drawn) [Example 187, 5-Chloro-thiophene-2-carboxylic acid [3-(2′-trifluoromethyl-biphenyl-4-yl)-4,5-dihydro-isoxazol-5-ylmethyl]-amide] cannot be ordered by pIC50: at least 7.00 for the first, 6.30 to 7.00 for the second.

In the case of CN1CCN=C1c1ccc(-c2cc(CNC(=O)c3ccc(Cl)s3)ccc2F)cc1 [Example 378, 5-Chloro-N-((3-(4-(1-methyl-4,5-dihydro-1H-imidazol-2-yl)phenyl)-4-fluorophenyl)methyl)thiophene-2-carboxamide], the pIC50 was 6.30 to 7.00.
